“Also recorded” adds a separate entry of the source. Marks after values point to notes of the source that are not given here.
Columns and labels:
[1] = system: C57BL/6 mice with UUO surgical ligation; assay: Example 2: UUO mice, renal function evaluation (plasma BUN, creatinine); format: in vivo; conditions: for Level of BUN compared to vehicle or other agents, in words: mg/kg PO QD: Telmisartan 3, Bemithyl 200, Repirinast 30, Telmisartan+Bemithyl 3+200, Telmisartan+Repirinast 3+30, Cenicriviroc 40, Bromantane 40; for BUN / Creatinine: plasma at sacrifice day 15, group mean, UUO, female C57BL/6 mice, PO QD days 1-14
Experimental: (§1) In this example, healthy young female C57BL/6 mice were used for the study. At the commencement of the study, mice were between 9-12 weeks of age, weighing 23-25 g. All the mice were obtained from Charles River Laboratories.
(§2) The mice were maintained in a controlled environment with a temp 70-72° F., humidity 30-70%, with a photo cycle of 12 hours of light and 12 hours of dark. They were provided with Harlan Teklad 2018 standard maintenance mouse chow diet and drinking water ad libitium.
(§3) After five days of acclimatization, the mice were grouped according to their body weight. There were ten groups of ten mice each. Nine groups of ten mice each underwent UUO as described above and the other group of ten mice underwent a sham procedure to serve as a no-surgery control.
(§4) Following surgery, the mice were divided into 10 individual study groups of 10 mice each and, following post-surgical recovery, administered a once-daily oral treatment for 14 days. The mice in 8 of the 10 study groups had all received the UUO surgical ligation and were treated individually with a distinct pharmacologic compound as set out in Table 6. The mice in 2 of the 10 study groups were treated individually with a pharmaceutically acceptable vehicle with no active ingredient. The pharmaceutically acceptable vehicle in all groups was 0.5% carboxymethyl cellulose (CMC). All mice were sacrificed with CO2 on post-surgical day 15.
(§5) The dose selected for the animal studies was determined by taking the maximum known human daily dose, dividing by the average weight of an adult (˜60-70 kg) to get a human mg/kg dose. That number was multiplied by 12 to convert to a mouse dose based on conventional dosing tables. See Nair and Jacob, J Basic Clin Pharm March 2016-May 2016, 7(2):27-31.
Serum collection: A blood sample was then collected from all mice and plasma analyzed for urea nitrogen and creatinine. Plasma was stored at −80° C. for possible future analysis.
(§6) The data are presented as the mean obtained from Microsoft Excel or GraphPad Prism version 5.00 for Windows (GraphPad Software, San Diego California USA). Data were analyzed using two-way ANOVA using Bonferroni and Tamhane post-tests. Differences between groups were considered significant at p<0.05.
Renal Function Evaluation: Renal function and disease progression was evaluated by BUN (blood urea nitrogen) as previously described. The BUN of each study group consisted of the BUN average of all mice in each study group.

[2] = Example 2: UUO mice, mean body weight change following surgery; format: in vivo, C57BL/6 mice; conditions: for Mean Body Weight Change Following Surgery, Day 1 / Mean Body Weight Change Following Surgery, Day 4 / Mean Body Weight Change Following Surgery, Day 7 / Mean Body Weight Change Following Surgery, Day 10 / Mean Body Weight Change Following Surgery, Day 14: UUO, female C57BL/6 mice, PO QD days 1-14; for Body weight course after surgery, in words: Example 2
Experimental: as §1, §2, §3, §4, §5
Body weight: The body weights were measured on days 1, 4, 7, 10 and 14 using a laboratory balance.
Body weights were measured on post-surgical days 1, 4, 7, 10 and 14 as previously described. The mean body weight change of each study group was calculated using the body weight average of all mice in each study group.

[3] = system: C57BL/6 mice with UUO surgical ligation; assay: Example 2: UUO mice, kidney weight evaluation; format: in vivo; conditions: for Drained Left Kidney: ligated kidney drained; for Drained Left Kidney / Excised Left Kidney / Right Kidney (g): group mean, UUO, female C57BL/6 mice, PO QD days 1-14; for Excised Left Kidney: ligated kidney; for Right Kidney (g): unligated kidney
Experimental: as §1, §2, §3, §4, §5
Kidney weight: The UUO was then examined in situ to ensure that the surgical ligation ties remained patent. Both the ligated (UUO) and non-ligated kidneys were removed for analysis. Weights of both kidneys were measured using a laboratory balance.
as §6
Kidney Weight Evaluation: Kidney weight, which indicates functional and pathological changes in the kidney, was evaluated by measuring the weight of both the ligated (UUO) and non-ligated kidneys as previously described. The ligated and non-ligated kidney weights of each study group consisted of the respective kidney weight averages of all mice in each study group.

[4] = system: C57BL/6 mice with UUO surgical ligation; assay: Example 2: UUO mice, renal fibrosis evaluation (Sirius Red histology score); format: in vivo; conditions: for Level of kidney fibrosis / histology score compared to vehicle or other agents, in words: mg/kg PO QD: Telmisartan 3, Bemithyl 200, Repirinast 30, Telmisartan+Bemithyl 3+200, Telmisartan+Repirinast 3+30, Cenicriviroc 40, Bromantane 40; for Histology Score: Sirius Red, 0=normal, 1=light, 2=moderate, 3=severe, group mean; for Histology Score / Reduction of fibrosis (%) (versus vehicle): UUO, female C57BL/6 mice, PO QD days 1-14; for Reduction of fibrosis (%) (versus vehicle): from histology score
Experimental: as §1, §2, §3, §4, §5
Histopathology: Formalin-fixed kidney cross-section samples were subjected histopathological scoring with Sirius Red staining, and imaged at a magnification of ×20, using standard techniques. All three sections were stained and evaluated. The analysis was performed by a board-certified veterinarian pathologist. The presence of interstitial damage and severity score was assessed according to the following criteria: 0=normal; 1=light; 2=moderate; 3=severe.
as §6
Renal Fibrosis Evaluation: Renal fibrosis and interstitial damage was evaluated by histochemical staining of renal cross-sections with Sirius Red as previously described. The Histology Score of each study group consisted of the histology score average of all mice in each study group.

[5] = * significant vs vehicle Bonferroni, # Tamhane (p<0.05), mg/kg: Telmisartan 3, Bemithyl 200, Repirinast 30, Telmisartan+Bemithyl 3+200, Telmisartan+Repirinast 3+30, Cenicriviroc 40, Bromantane 40
[6] = mg/kg: Telmisartan 3, Bemithyl 200, Repirinast 30, Telmisartan+Bemithyl 3+200, Telmisartan+Repirinast 3+30, Cenicriviroc 40, Bromantane 40
[7] = mg/kg PO QD: Repirinast 30, Bemithyl 200, Bromantane 40, Telmisartan+Bemithyl 3+200
[8] = Example 2, Repirinast 90 mg/kg PO QD

Row | SMILES | Level of BUN compared to vehicle or other agents, in words ([1]; Example 2) | BUN [1, 5] | Creatinine [1, 6] [mg/dL] | Mean Body Weight Change Following Surgery, Day 1 [2, 6] [g] | Mean Body Weight Change Following Surgery, Day 4 [2, 6] [g] | Mean Body Weight Change Following Surgery, Day 7 [2, 6] [g] | Mean Body Weight Change Following Surgery, Day 10 [2, 6] [g] | Mean Body Weight Change Following Surgery, Day 14 [2, 6] [g] | Body weight course after surgery, in words [2, 7] | Drained Left Kidney [3, 6] [g] | Excised Left Kidney [3, 6] [g] | Right Kidney (g) [3, 6] | Level of kidney fibrosis / histology score compared to vehicle or other agents, in words ([4]; Example 2) | Histology Score [4, 6] | Reduction of fibrosis (%) (versus vehicle) [4, 6] | further results
1 | CCSc1nc2ccccc2[nH]1 [Bemithyl, 2-Ethylsulfanyl-1H-benzoimidazole] | significant reductions in the level of BUN compared to vehicle; also recorded: reduction in BUN compared to vehicle | 19.4* mg/dL | 0.20 | 0 | 0.16 | 0.16 | 0.36 | 0.54 | no initial decrease in body weight; also recorded: even greater than that of the sham surgery control group; also recorded: appeared to reverse the negative effects of UUO on body weight gain | 0.1565 | 0.398 | 0.1333* g | significantly reduce the level of kidney fibrosis compared to vehicle; also recorded: significant improvement in kidney fibrosis | 1.15** | 52 | Weight of the drained left kidney compared to the vehicle group, in words ([3]; Example 2, Telmisartan 3 + Repirinast 30 mg/kg, Bemithyl 200 mg/kg): a similar effect was observed
2 | Brc1ccc(NC2C3CC4CC(C3)CC2C4)cc1 (stereo not shown) [Bromantane, N-(4-Bromophenyl)adamantan-2-amine] | significant reductions in the level of BUN compared to vehicle; also recorded: most effective compound tested; also recorded: superior to Telmisartan; also recorded: reduction in BUN compared to vehicle; also recorded: highest reductions in both fibrosis and BUN levels | 17.3** mg/dL | 0.20 | 0 | 0.11 | 0.36 | 0.15 | 0.55 | no initial decrease in body weight; also recorded: appeared to reverse the negative effects of UUO on body weight gain | 0.1775 | 0.3995 | 0.143* g | significantly reduce the level of kidney fibrosis compared to vehicle; also recorded: greatest numerical reduction in the histology score; also recorded: superior to both Telmisartan; also recorded: significant improvement in kidney fibrosis; also recorded: highest reductions in both fibrosis and BUN levels | 1.02*# | 58 | 
3 | Cc1ccc2c([nH]c(=O)c3c(=O)cc(C(=O)OCCC(C)C)oc32)c1C [Repirinast, 3-methylbutyl 7,8-dimethyl-4,5-dioxo-5,6-dihydro-4H-pyrano[3,2-c]quinoline-2-carboxylate] | significant reductions in the level of BUN compared to vehicle | 18.5*# mg/dL | 0.20 | 0 | 0.34 | 0.35 | 0.83 | 0.86 | no initial decrease in body weight | 0.1808 | 0.412 | 0.1468* g | statistically insignificant improvements | 1.90 | 21 | Level of BUN compared to vehicle, in words [1, 8]: significant reductions in the level of BUN compared to vehicle; also recorded: reduction in BUN compared to vehicle; BUN ([1]; Repirinast 90 mg/kg): 17.6*# mg/dL; Creatinine ([1]; Repirinast 90 mg/kg): 0.20 mg/dL; Mean Body Weight Change Following Surgery, Day 1 ([2]; Repirinast 90 mg/kg): 0 g; Mean Body Weight Change Following Surgery, Day 4 ([2]; Repirinast 90 mg/kg): 0.31 g; Mean Body Weight Change Following Surgery, Day 7 ([2]; Repirinast 90 mg/kg): 0.60 g; Mean Body Weight Change Following Surgery, Day 10 ([2]; Repirinast 90 mg/kg): 0.86 g; Mean Body Weight Change Following Surgery, Day 14 ([2]; Repirinast 90 mg/kg): 1.08 g; Body weight course after surgery, in words ([2]; Repirinast 90 mg/kg PO QD): no initial decrease in body weight; also recorded: appeared to reverse the negative effects of UUO on body weight gain; Drained Left Kidney ([3]; Repirinast 90 mg/kg): 0.1648 g; Excised Left Kidney ([3]; Repirinast 90 mg/kg): 0.3681 g; Right Kidney (g) ([3]; Repirinast 90 mg/kg): 0.1378* g; Level of kidney fibrosis compared to vehicle, in words [4, 8]: significantly reduce the level of kidney fibrosis compared to vehicle; also recorded: significant improvement in kidney fibrosis; Histology Score ([4]; Repirinast 90 mg/kg): 1.19*#; Reduction of fibrosis (%) (versus vehicle) ([4]; Repirinast 90 mg/kg): 51%

— US12280026B2, “Use of repirinast in the prophylaxis or treatment of renal fibrosis or kidney disease” (ALGERNON PHARMACEUTICALS INC., priority 2018, dated 2025)
